Assay results from patent US12077503B2, “Substituted cyclic amides and their use as herbicides” (FMC CORPORATION, priority 2015, dated 2024).

Assays:
[1] = tested on: Galium (catchweed bedstraw, Galium aparine); test: Test C preemergence; type: in vivo; conditions: for Plant response rating, Galium: scale 0 to 100, 0 no effect, 100 complete control
Procedure, shortened: (§1)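 Visual rating, 0–100 scale (0 = no effect, 100 = complete control) versus controls, 13–15 d after treatment. Compounds in non-phytotoxic solvent plus surfactant; applied preemergence to seeds in loam/sand soil or postemergence to 1- to 4-leaf plants (2–18 cm) in peat/vermiculite medium; greenhouse-held.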

[2] = tested on: barnyardgrass (Echinochloa crus-galli); test: Test C preemergence; type: in vivo; conditions: for Plant response rating, Barnyardgrass: scale 0 to 100, 0 no effect, 100 complete control
Procedure, shortened: as §1

[3] = tested on: blackgrass (Alopecurus myosuroides); test: Test C preemergence; type: in vivo; conditions: for Plant response rating, Blackgrass: scale 0 to 100, 0 no effect, 100 complete control
Procedure, shortened: as §1

[4] = tested on: corn (Zea mays); test: Test C preemergence; type: in vivo; conditions: for Plant response rating, Corn: scale 0 to 100, 0 no effect, 100 complete control
Procedure, shortened: as §1

[5] = tested on: crabgrass, large (large crabgrass, Digitaria sanguinalis); test: Test C preemergence; type: in vivo; conditions: for Plant response rating, Crabgrass, Large: scale 0 to 100, 0 no effect, 100 complete control
Procedure, shortened: as §1

[6] = tested on: foxtail, giant (giant foxtail, Setaria faberii); test: Test C preemergence; type: in vivo; conditions: for Plant response rating, Foxtail, Giant: scale 0 to 100, 0 no effect, 100 complete control
Procedure, shortened: as §1

[7] = tested on: johnsongrass (Sorghum halepense); test: Test C preemergence; type: in vivo; conditions: for Plant response rating, Johnsongrass: scale 0 to 100, 0 no effect, 100 complete control
Procedure, shortened: as §1

[8] = tested on: lambsquarters (Chenopodium album); test: Test C preemergence; type: in vivo; conditions: for Plant response rating, Lambsquarters: scale 0 to 100, 0 no effect, 100 complete control
Procedure, shortened: as §1

[9] = tested on: morningglory (Ipomoea coccinea); test: Test C preemergence; type: in vivo; conditions: for Plant response rating, Morningglory: scale 0 to 100, 0 no effect, 100 complete control
Procedure, shortened: as §1

[10] = tested on: nutsedge, yellow (yellow nutsedge, Cyperus esculentus); test: Test C preemergence; type: in vivo; conditions: for Plant response rating, Nutsedge, Yellow: scale 0 to 100, 0 no effect, 100 complete control
Procedure, shortened: as §1

[11] = tested on: oilseed rape (Brassica napus); test: Test C preemergence; type: in vivo; conditions: for Plant response rating, Oilseed Rape: scale 0 to 100, 0 no effect, 100 complete control
Procedure, shortened: as §1

[12] = tested on: pigweed (Amaranthus retroflexus); test: Test C preemergence; type: in vivo; conditions: for Plant response rating, Pigweed: scale 0 to 100, 0 no effect, 100 complete control
Procedure, shortened: as §1

[13] = tested on: ragweed (common ragweed, Ambrosia elatior); test: Test C preemergence; type: in vivo; conditions: for Plant response rating, Ragweed: scale 0 to 100, 0 no effect, 100 complete control
Procedure, shortened: as §1

[14] = tested on: ryegrass, Italian (Italian ryegrass, Lolium multiflorum); test: Test C preemergence; type: in vivo; conditions: for Plant response rating, Ryegrass, Italian: scale 0 to 100, 0 no effect, 100 complete control
Procedure, shortened: as §1

[15] = tested on: soybean (Glycine max); test: Test C preemergence; type: in vivo; conditions: for Plant response rating, Soybean: scale 0 to 100, 0 no effect, 100 complete control
Procedure, shortened: as §1

[16] = tested on: velvetleaf (Abutilon theophrasti); test: Test C preemergence; type: in vivo; conditions: for Plant response rating, Velvetleaf: scale 0 to 100, 0 no effect, 100 complete control
Procedure, shortened: as §1

[17] = tested on: waterhemp (common waterhemp, Amaranthus rudis); test: Test C preemergence; type: in vivo; conditions: for Plant response rating, Waterhemp: scale 0 to 100, 0 no effect, 100 complete control
Procedure, shortened: as §1

[18] = tested on: wheat (winter wheat, Triticum aestivum); test: Test C preemergence; type: in vivo; conditions: for Plant response rating, Wheat: scale 0 to 100, 0 no effect, 100 complete control
Procedure, shortened: as §1

[19] = tested on: ducksalad (Heteranthera limosa); test: Test C flooded paddy test; type: in vivo; conditions: Flood; for Plant response rating (scale of 0 to 100), Ducksalad: 0 is no effect, 100 is complete control
Procedure, shortened: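 Plants grown to the 2-leaf stage in pots flooded to 3 cm above soil; compounds applied directly into the paddy water, depth held throughout. After 13 to 15 d in greenhouse, injury visually rated against untreated controls on a 0–100 scale (0 no effect, 100 complete control).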

[20] = 31 g ai/ha, 0 is no effect, 100 is complete control

CN1CC(c2cc(F)cc(F)c2)C(C(=O)Nc2cccc(F)c2F)C1=O (stereo not shown) [Compound 644]
Plant response rating (scale of 0 to 100), Galium [1, 20]: 10
Plant response rating, Galium ([1]; 62 g ai/ha): 85
Plant response rating, Galium ([1]; 125 g ai/ha): 90
Plant response rating, Galium ([1]; 250 g ai/ha): 98
Plant response rating (scale of 0 to 100), Barnyardgrass [2, 20]: 90
Plant response rating, Barnyardgrass ([2]; 62 g ai/ha): 95
Plant response rating, Barnyardgrass ([2]; 125 g ai/ha): 98
Plant response rating, Barnyardgrass ([2]; 250 g ai/ha): 98
Plant response rating (scale of 0 to 100), Blackgrass [3, 20]: 70
Plant response rating, Blackgrass ([3]; 62 g ai/ha): 70
Plant response rating, Blackgrass ([3]; 125 g ai/ha): 90
Plant response rating, Blackgrass ([3]; 250 g ai/ha): 95
Plant response rating (scale of 0 to 100), Corn [4, 20]: 30
Plant response rating, Corn ([4]; 62 g ai/ha): 50
Plant response rating, Corn ([4]; 125 g ai/ha): 65
Plant response rating, Corn ([4]; 250 g ai/ha): 85
Plant response rating (scale of 0 to 100), Crabgrass, Large [5, 20]: 95
Plant response rating, Crabgrass, Large ([5]; 62 g ai/ha): 95
Plant response rating, Crabgrass, Large ([5]; 125 g ai/ha): 98
Plant response rating, Crabgrass, Large ([5]; 250 g ai/ha): 100
Plant response rating (scale of 0 to 100), Foxtail, Giant [6, 20]: 95
Plant response rating, Foxtail, Giant ([6]; 62 g ai/ha): 95
Plant response rating, Foxtail, Giant ([6]; 125 g ai/ha): 98
Plant response rating, Foxtail, Giant ([6]; 250 g ai/ha): 98
Plant response rating (scale of 0 to 100), Johnsongrass [7, 20]: 35
Plant response rating, Johnsongrass ([7]; 62 g ai/ha): 70
Plant response rating, Johnsongrass ([7]; 125 g ai/ha): 85
Plant response rating, Johnsongrass ([7]; 250 g ai/ha): 85
Plant response rating (scale of 0 to 100), Lambsquarters [8, 20]: 50
Plant response rating, Lambsquarters ([8]; 62 g ai/ha): 75
Plant response rating, Lambsquarters ([8]; 125 g ai/ha): 85
Plant response rating, Lambsquarters ([8]; 250 g ai/ha): 85
Plant response rating (scale of 0 to 100), Morningglory [9, 20]: 0
Plant response rating, Morningglory ([9]; 62 g ai/ha): 0
Plant response rating, Morningglory ([9]; 125 g ai/ha): 0
Plant response rating, Morningglory ([9]; 250 g ai/ha): 0
Plant response rating (scale of 0 to 100), Nutsedge, Yellow [10, 20]: 0
Plant response rating, Nutsedge, Yellow ([10]; 62 g ai/ha): 0
Plant response rating, Nutsedge, Yellow ([10]; 125 g ai/ha): 0
Plant response rating, Nutsedge, Yellow ([10]; 250 g ai/ha): 15
Plant response rating (scale of 0 to 100), Oilseed Rape [11, 20]: 0
Plant response rating, Oilseed Rape ([11]; 62 g ai/ha): 50
Plant response rating, Oilseed Rape ([11]; 125 g ai/ha): 85
Plant response rating, Oilseed Rape ([11]; 250 g ai/ha): 90
Plant response rating (scale of 0 to 100), Pigweed [12, 20]: 0
Plant response rating, Pigweed ([12]; 62 g ai/ha): 55
Plant response rating, Pigweed ([12]; 125 g ai/ha): 55
Plant response rating, Pigweed ([12]; 250 g ai/ha): 70
Plant response rating (scale of 0 to 100), Ragweed [13, 20]: 25
Plant response rating, Ragweed ([13]; 62 g ai/ha): 35
Plant response rating, Ragweed ([13]; 125 g ai/ha): 70
Plant response rating, Ragweed ([13]; 250 g ai/ha): 85
Plant response rating (scale of 0 to 100), Ryegrass, Italian [14, 20]: 50
Plant response rating, Ryegrass, Italian ([14]; 62 g ai/ha): 55
Plant response rating, Ryegrass, Italian ([14]; 125 g ai/ha): 65
Plant response rating, Ryegrass, Italian ([14]; 250 g ai/ha): 98
Plant response rating (scale of 0 to 100), Soybean [15, 20]: 10
Plant response rating, Soybean ([15]; 62 g ai/ha): 10
Plant response rating, Soybean ([15]; 125 g ai/ha): 0
Plant response rating (scale of 0 to 100), Velvetleaf [16, 20]: 5
Plant response rating, Velvetleaf ([16]; 62 g ai/ha): 15
Plant response rating, Velvetleaf ([16]; 125 g ai/ha): 40
Plant response rating, Velvetleaf ([16]; 250 g ai/ha): 60
Plant response rating (scale of 0 to 100), Waterhemp [17, 20]: 10
Plant response rating, Waterhemp ([17]; 62 g ai/ha): 65
Plant response rating, Waterhemp ([17]; 125 g ai/ha): 65
Plant response rating, Waterhemp ([17]; 250 g ai/ha): 80
Plant response rating (scale of 0 to 100), Wheat [18, 20]: 30
Plant response rating, Wheat ([18]; 62 g ai/ha): 80
Plant response rating, Wheat ([18]; 125 g ai/ha): 85
Plant response rating, Wheat ([18]; 250 g ai/ha): 90
Plant response rating, Ducksalad ([19]; 31 g ai/ha, scale 0 to 100 (0 no effect, 100 complete control), 13 to 15 d): 55
Plant response rating (scale of 0 to 100), Ducksalad ([19]; 62 g ai/ha): 65
Plant response rating (scale of 0 to 100), Ducksalad ([19]; 125 g ai/ha): 100
Plant response rating (scale of 0 to 100), Ducksalad ([19]; 250 g ai/ha): 100

CC(C)=CC1CNC(=O)C1C(=O)Nc1cccc(F)c1F (stereo not shown) [Compound 1012]
melting point: 162 to 166 °C

COc1cccc([C@H]2CN(C)C(=O)[C@@H]2C(=O)Nc2cccc(F)c2F)c1F [Compound 1072]
melting point: 163 to 167 °C

C=C(C)c1cccc([C@H]2CN(C)C(=O)[C@@H]2C(=O)Nc2cccc(F)c2F)c1 [Compound 1085]
melting point: 113 to 117 °C

C=C(C)c1cccc([C@H]2CN(C)C(=O)[C@@H]2C(=O)Nc2cccc(F)c2C)c1 [Compound 1086]
melting point: 89 to 93 °C

CN1C[C@H](c2ccc(F)c(Oc3ccccc3)c2)[C@@H](C(=O)Nc2ccccc2S(C)(=O)=O)C1=O [Compound 1143]
melting point: 141 to 145 °C

C=C(C)c1ccc([C@H]2CN(C)C(=O)[C@@H]2C(=O)Nc2cccc(F)c2F)cc1 [Compound 1149]
melting point: 126 to 130 °C

O=C1NC[C@H](c2ccc(F)c(Oc3ccccc3)c2)[C@H]1C(=O)Nc1cccc(F)c1F [Compound 1258]
melting point: 123 to 127 °C

COc1ccc([C@H]2CNC(=O)[C@@H]2C(=O)Nc2cccc(F)c2F)cc1 [Compound 1341]
melting point: 187 to 191 °C

COc1ccc([C@H]2CN(C)C(=O)[C@@H]2C(=O)Nc2cccc(F)c2F)cc1 [Compound 1343]
melting point: 130 to 134 °C

O=C1NC[C@H](c2cc(Br)cc(Br)c2)[C@H]1C(=O)Nc1cccc(F)c1F [Compound 1366]
melting point: 81 to 85 °C
